Test results taken from publication PMC3495175 (Bioorganic & medicinal chemistry, 2012).

Experiments:
MtMetAP1c = MtMetAP1c (Mycobacterium tuberculosis, UniProt P9WK19); assay: MtMetAP1c coupled enzyme assay; assay type: biochemical; conditions: for IC50: IC50 (µM), MtMetAP 1c, 100 nM enzyme
MtMetAP1a = MtMetAP1a (Mycobacterium tuberculosis, UniProt P9WK21); assay: MtMetAP1a coupled enzyme assay; assay type: biochemical; conditions: for IC50: IC50 (µM), MtMetAP 1a, 200 nM enzyme; for Inhibition of MtMetAP1a (in words): both metalloforms (Co2+, Mn2+)
Sequence of MtMetAP1a (P9WK21 whole entry): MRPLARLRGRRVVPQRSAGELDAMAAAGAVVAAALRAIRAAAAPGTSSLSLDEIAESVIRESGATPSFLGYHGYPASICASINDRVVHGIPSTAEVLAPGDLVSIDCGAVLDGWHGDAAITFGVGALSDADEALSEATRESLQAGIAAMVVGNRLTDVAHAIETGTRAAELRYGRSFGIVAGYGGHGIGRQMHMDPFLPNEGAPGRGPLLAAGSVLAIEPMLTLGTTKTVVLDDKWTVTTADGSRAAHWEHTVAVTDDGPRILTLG

[1] = Mn2+, Mn2+ cofactor (10 µM MnCl2)
[2] = Co2+, Co2+ cofactor (10 µM CoCl2)

Sequence of MtMetAP1c (P9WK19 whole entry): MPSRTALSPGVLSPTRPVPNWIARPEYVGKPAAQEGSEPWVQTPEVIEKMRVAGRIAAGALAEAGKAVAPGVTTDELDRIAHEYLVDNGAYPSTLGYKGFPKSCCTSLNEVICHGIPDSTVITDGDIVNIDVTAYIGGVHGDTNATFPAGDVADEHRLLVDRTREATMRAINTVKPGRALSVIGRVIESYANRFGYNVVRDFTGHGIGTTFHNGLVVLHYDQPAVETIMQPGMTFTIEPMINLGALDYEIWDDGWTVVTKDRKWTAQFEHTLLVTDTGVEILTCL

Structure (SMILES)	IC50 (MtMetAP1c; [1]) [µM]	IC50 (MtMetAP1a; [2]) [µM]	IC50 (MtMetAP1a; [1]) [µM]	IC50 (MtMetAP1c; [2]) [µM]	Inhibition of MtMetAP1a (in words) (MtMetAP1a)	Inhibition of MtMetAP1c (in words) (MtMetAP1c)
CN(C)/C=N/c1nc2c(s1)CCc1ccccc1-2 [3a]	> 50					
Nc1nc2c(s1)CCc1ccccc1-2 [3n, reference compound]	> 50	> 50	> 50	> 50		
COc1ccc2c(c1)CCc1sc(N)nc1-2 [3o, reference compound]	> 50	> 50	> 50	> 50		
COc1ccc2c(c1)CCc1sc(NC(C)=O)nc1-2 [3p, reference compound]	> 50	> 50	> 50	> 50		
CCCCCCCCC(=O)Nc1nc2c(s1)CCc1ccccc1-2 [3q, reference compound]	> 50	> 50	> 50	> 50		
CCCCCCCCC(=O)Nc1nc2c(s1)CCc1cc(OC)ccc1-2 [3r, reference compound]	> 50	> 50	> 50	> 50		
COc1ccc2c(c1)CCc1sc(NC(=O)[C@H](C)O)nc1-2 [3s, (S)-2-Hydroxy-N-(7-methoxy-4H,5H-naphtho[1,2-d]thiazol-2-yl)propanamide]	> 50	> 50	> 50	> 50		
COc1ccc2c(c1)CCc1sc(/N=C/c3ccco3)nc1-2 [3t]	> 50	> 50	> 50	> 50		
COc1ccc2c(c1)CCc1sc(NCc3ccco3)nc1-2 [3u, N-(Furan-2-ylmethyl)-7-methoxy-4H,5H-naphtho[1,2-d]thiazol-2-amine]	> 50	> 50	> 50	> 50		
COc1ccc2c(c1)CCc1sc(/N=C/c3ccccc3O)nc1-2 [3v]	> 50	> 50	> 50	> 50		
O/N=C\Nc1nc2c(s1)CCc1ccccc1-2 [4a]	> 50		> 50			
COc1ccc2c(c1)-c1nc(NC=NO)sc1CC2 [4b, N'-hydroxy-N-(8-methoxy-4H,5H-naphtho[1,2-d]thiazol-2-yl)methanimidamide]			> 50			
COc1ccc2c(c1)CCc1sc(N/C=N\O)nc1-2 [4c, N'-hydroxy-N-(7-methoxy-4H,5H-naphtho[1,2-d]thiazol-2-yl)methanimidamide]	> 50		> 50			
COc1cc2c(cc1OC)-c1nc(N/C=N\O)sc1CC2 [4e]	> 50					
O/N=C\Nc1nc2c(s1)CCc1cc3c(cc1-2)OCO3 [4f]			> 20			
COc1ccc2c(c1)OCc1sc(N/C=N\O)nc1-2 [4g]	> 50			> 50	moderate inhibition	did not inhibit
O/N=C\Nc1nc2c(s1)COc1cc3c(cc1-2)OCO3 [4h]			> 10			
COc1ccc2c(c1)OC(c1ccccc1)c1sc(N/C=N\O)nc1-2 (stereo not shown) [4i]	> 50			> 50	moderate inhibition	did not inhibit
O/N=C\Nc1nc2c(s1)CCCc1cc3c(cc1-2)OCO3 [4j]			> 50			
COc1ccc2c(c1)Cc1sc(N/C=N\O)nc1-2 [4l]	> 50	> 50	> 50	> 50		
COc1ccc(-c2csc(N/C=N\O)n2)cc1OC [4m]		> 20	> 20			moderate potency
